Test results published in US7410971B2, “1,2-di(cyclic)substituted benzene compounds” (Eisai R&D Management Co., Ltd., priority 2003, dated 2008).

Key:
Jurkat cells = assay: Jurkat cell adhesion system (adhesion to immobilized human fibronectin, PMA-stimulated); assay type: cell-based; details: concentration inhibiting by 50% the PMA-stimulated increase in number of adhered Jurkat cells on human fibronectin
Description: Evaluation of Compounds in Jurkat Cell Adhesion System
<Immobilization of Human Fibronectin in 96-Well Plate>
Human fibronectin (Becton Dickinson Biosciences) was diluted with phosphate-buffered saline (hereinafter abbreviated as PBS; Sigma) to 0.1-0.01 μg/ml, and the diluted solution was added to a 96-well plate (Becton Dickinson) at 50μ/well, and allowed to stand overnight at 4° C. On the following day, the supernatant was removed from the plate, and then PBS containing 1% bovine serum albumin (hereinafter abbreviated as BSA; Sigma) was added thereto at 100 μl/well and incubation was performed at 37° C. for 2 hours in a CO2 incubator (Hirasawa).
The supernatant was removed from each plate and Jurkat cells suspended in RPMI-1640 (Sigma) containing 1 mg/ml BSA were added at 80 μl/well for 2.5×10^5 cells/well. The compound diluted to different concentrations with RPMI-1640 containing 1 mg/ml BSA was immediately added at 10 μl/well, and then 100 nM phorbol myristate acetate (hereinafter abbreviated as PMA; Sigma) in RPMI-1640 containing 1 mg/ml BSA was added at 10 μl/well and the plate was incubated in a CO2 incubator at 37° C. for 45-60 minutes. The supernatant was removed from the plate and each well was washed several times with 100 μl/well of RPMI-1640, after which 50 mM citrate buffer (pH 5.0) containing 3.75 mM p-nitrophenol-N-acetyl-β-D-glucosaminide (Sigma) and 0.25% Triton X-100 (Sigma) were added at 60 μl/well, and the mixture was placed in a CO2 incubator and incubated at 37° C. for 45 minutes. After incubation, 50 mM glycine buffer (pH 10.4) containing 5 mM EDTA was added at 90 μl/well, and the absorbance at 405 nm was measured with an EL340 Automated Microplate Reader (BIO-TEK) to determine the adhered cell count. The concentration of each compound which inhibited the increase in the number of adhered cells by the PMA-stimulation by 50% was recorded as the IC50 (μM).

[1] = test system: human peripheral blood neutrophils; assay: Human peripheral blood neutrophil adhesion system (adhesion to immobilized HUVEC, PMA-stimulated); assay type: cell-based; details: concentration inhibiting by 50% the PMA-stimulated increase in number of adhered BCECF-AM labeled neutrophils on HUVEC immobilized plate
Description: Evaluation of Compounds in Human Peripheral Blood Neutrophil Adhesion System
<Preparation of Human Peripheral Blood Neutrophils>
To a plastic centrifugation tube containing 100 units of heparin sodium (Shimizu Pharmaceutical) was added 25 ml of fresh blood sampled from a healthy human. After adding and mixing therewith 8 ml of physiological saline (Otsuka Pharmaceutical) containing 6% Dextran (Nacalai), the mixture was allowed to stand room temperature for 45 minutes for sedimentation of the erythrocytes. The resultant supernatant was transferred to another plastic centrifugation tube and combined with an equivalent volume of phosphate-buffered saline (hereinafter abbreviated as PBS; Sigma), and then centrifuged at 1600 rpm for 7 minutes at room temperature. The obtained hematocyte fraction was suspended in 4 ml of PBS, and the suspension was superposed on 4 ml of Ficoll-Paque™ PLUS (Amersham Biosciences). The resultant bilayer liquid was centrifuged at 2000 rpm for 30 minutes at room temperature, after which the supernatant was removed and the precipitate was suspended in 10 ml of PBS and centrifuged at 1200 rpm for 7 minutes, and the supernatant was removed. The resulting precipitate was suspended in 0.5 ml of PBS again, and then 10 ml of distilled water (Otsuka Pharmaceutical) was added, 0.5 ml of an aqueous solution containing 3 M NaCl was immediately added to restore isotonicity, the mixture was centrifuged at 1200 rpm for 7 minutes, and the obtained precipitate was suspended in PBS containing 1 mg/ml bovine serum albumin (hereinafter abbreviated as BSA; Sigma) again and stored in ice until being used for the experiment.
<Fluorescent Labeling of Human Peripheral Blood Neutrophils>
The obtained neutrophils were suspended in PBS containing 1 mg/ml BSA at 2×10^7 cells/ml. BCECF-AM (Dojin) was added to a final concentration of 5 μM, and the mixture was incubated at 37° C. for 45 minutes. It was then rinsed twice with PBS containing 1 mg/ml BSA by centrifugation, suspended again in PBS containing 1 mg/ml BSA at 5×10^7 cells/ml, and stored in ice until use.
<Preparation of HUVEC Immobilized Plate>
Human umbilical vein endothelial cells (hereinafter abbreviated as HUVEC) were suspended in MCDB131 medium (Chlorella Industries) containing 10% fetal calf serum and 30 μg/ml endothelial cell growth supplement (Becton Dickinson Bioscience). The suspension was added at 7.5×10^3 cells/well to a 96-well plate (Iwaki) immobilized with type I collagen, and cultured for 3 days in a CO2 incubator (Hirasawa). Upon confirming confluency of the cells, the supernatant was discarded, the plate was rinsed twice with PBS, and then PBS containing 0.1% glutaraldehyde (Kanto Kagaku) was added at 100 μl/well and the HUVECs were immobilized for 5 minutes. The supernatant was discarded and the plate was washed twice with PBS, and then PBS was added at 100 μl/well and the mixture was stored at 4° C. until use.
To 6.5 ml of RPMI-1640 medium (Sigma) containing 1 mg/ml of BSA were added 0.5 ml of a suspension of BCECF-AM labeled neutrophils at 5×10^7/ml stored in ice, which was mixed, and the mixture was added at 80 μl/well to a HUVEC immobilized plate. […] The supernatant was removed from the plate, which was then washed several times with RPMI-1640 at 100 μl/well, and then PBS containing 0.1% NP-40 (Calbiochem) was added thereto at 100 μl/well and the fluorescent intensity was measured with an ARVO™SX 1420 multi label counter (Wallac) to determine the number of adhered cells. […]

Structure (SMILES)	IC50 (Jurkat cells) [µM]	IC50 [1] [µM]
CCCCN1CCN(c2cc(C#N)ccc2[C@H]2CC[C@H](C(C)(C)C)CC2)CC1.Cl [Example 13, trans-4-(4-t-Butylcyclohexyl)-3-(4-butylpiperazin-1-yl)benzonitrile hydrochloride]	3.9	53.9
CCCCN1CCN(c2cc(C#N)ccc2[C@H]2CC[C@@H](C(C)(C)C)CC2)CC1.Cl [Example 12, cis-4-(4-t-Butylcyclohexyl)-3-(4-butylpiperazine-1-yl)benzonitrile hydrochloride]	3.1	18.3
